Biological target: T1, human MDM2 (GST-hMDM2 1-188), interaction with biotinylated-p53 (1-83) (Homo sapiens, UniProt Q00987)
T1 construct: Amino acid residues 1-188 of human MDM2 were expressed; made in house; host or cells: Escherichia coli
Test: improved HTRF assay (HTRF2 assay), inhibition of HDM2-p53 interaction
Assay type: binding
Settings: 0.2 nM GST-hMDM2, 0.5 nM biotinylated-p53, 100 mM KF
Outline: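 GST-hMDM2 preincubated 20 min at RT with serially diluted compound, then biotinylated p53 (1-83, E. coli) added for 60 min. Detection with SA-XLent, anti-GST cryptate and KF, equilibrated >4 h; final DMSO 2%. TR-FRET read; % inhibition calculated relative to nutlin-3.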

T1 sequence (Q00987 1-188): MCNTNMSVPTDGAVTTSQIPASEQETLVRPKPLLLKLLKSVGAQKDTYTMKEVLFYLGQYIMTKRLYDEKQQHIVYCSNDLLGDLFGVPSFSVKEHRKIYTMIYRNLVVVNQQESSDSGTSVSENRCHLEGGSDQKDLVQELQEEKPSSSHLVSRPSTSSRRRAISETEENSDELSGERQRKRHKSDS

| Compound | IC50 [nM] |
| --- | --- |
| CC(C)(C)S(=O)(=O)C[C@H](C1CC1)N1C(=O)[C@@H](CC(=O)O)O[C@H](c2ccc(Cl)c(Cl)c2)[C@H]1c1ccc(Cl)cc1 (single isomer, unassigned) [Example 319, 2-((2R,5R,6R)-4-((S)-2-(tert-Butylsulfonyl)-1-cyclopropylethyl)-5-(4-chlorophenyl)-6-(3,4-dichlorophenyl)-3-oxomorpholin-2-yl)acetic acid or 2-((2S,5R,6R)-4-((S)-2-(tert-butylsulfonyl)-1-cyclopropylethyl)-5-(4-chlorophenyl)-6-(3,4-dichlorophenyl)-3-oxomorpholin-2-yl)acetic acid] | 113 |
| CC[C@@H](CS(=O)(=O)C1CCC1)N1C(=O)[C@@H](CC(=O)O)O[C@H](c2cccc(Cl)c2)[C@H]1c1ccc(Cl)cc1 (single isomer, unassigned) [Example 142, 2-((2R,5R,6R)-6-(3-chlorophenyl)-5-(4-chlorophenyl)-4-((S)-1-(cyclobutylsulfonyl)butan-2-yl)-3-oxomorpholin-2-yl)acetic acid or 2-((2S,5R,6R)-6-(3-chlorophenyl)-5-(4-chlorophenyl)-4-((S)-1-(cyclobutylsulfonyl)butan-2-yl)-3-oxomorpholin-2-yl)acetic acid] | 7 |
| CC[C@@H](CN(c1ccccc1F)S(=O)(=O)C1(C)CC1)N1C(=O)[C@@H](CC(=O)O)O[C@H](c2cccc(Cl)c2)[C@H]1c1ccc(Cl)cc1 (single isomer, unassigned) [Example 175, 2-((2R,5R,6R)-6-(3-chlorophenyl)-5-(4-chlorophenyl)-4-((S)-1-(N-(2-fluorophenyl)-1-methylcyclopropanesulfonamido)butan-2-yl)-3-oxomorpholin-2-yl)acetic acid or 2-((2S,5R,6R)-6-(3-chlorophenyl)-5-(4-chlorophenyl)-4-((S)-1-(N-(2-fluorophenyl)-1-methylcyclopropanesulfonamido)butan-2-yl)-3-oxomorpholin-2-yl)acetic acid] | < 1 |
| CC[C@@H]([C@H](C)S(=O)(=O)C(C)(C)C)N1C(=O)[C@@H](CC(=O)O)O[C@H](c2cccc(Cl)c2)[C@H]1c1ccc(Cl)cc1 (single isomer, unassigned) [Example 420] | 12 |
| CC[C@]1(CC(=O)O)O[C@H](c2cccc(Cl)c2)[C@@H](c2ccc(Cl)cc2)N([C@@H](CC(F)(F)F)CS(=O)(=O)C(C)(C)C)C1=O (single isomer, unassigned) [Example 342, 2-((2R,5R,6R)-4-((S)-1-(tert-Butylsulfonyl)-4,4,4-trifluorobutan-2-yl)-6-(3-chlorophenyl)-5-(4-chlorophenyl)-2-ethyl-3-oxomorpholin-2-yl)acetic acid or 2-((2S,5R,6R)-4-((S)-1-(tert-butylsulfonyl)-4,4,4-trifluorobutan-2-yl)-6-(3-chlorophenyl)-5-(4-chlorophenyl)-2-ethyl-3-oxomorpholin-2-yl)acetic acid] | 104 |
| CC[C@@H](CS(=O)(=O)c1ccccn1)N1C(=O)[C@@H](CC(=O)O)O[C@H](c2cccc(Cl)c2)[C@H]1c1ccc(Cl)cc1 (single isomer, unassigned) [Example 203, 2-((2R,5R,6R)-6-(3-chlorophenyl)-5-(4-chlorophenyl)-3-oxo-4-((S)-1-(pyridin-2-ylsulfonyl)butan-2-yl)morpholin-2-yl)acetic acid or 2-((2S,5R,6R)-6-(3-chlorophenyl)-5-(4-chlorophenyl)-3-oxo-4-((S)-1-(pyridin-2-ylsulfonyl)butan-2-yl)morpholin-2-yl)acetic acid] | 20 |
| CC[C@@H]([C@H](C)S(=O)(=O)C(C)(C)C)N1C(=O)[C@@H](CC(=O)O)O[C@H](c2cccc(Cl)c2)[C@H]1c1ccc(Cl)cc1 (single isomer, unassigned) [Example 419] | 4 |
| CC(C)(C)S(=O)(=O)[C@H]1CCCC[C@@H]1N1C(=O)[C@@H](CC(=O)O)O[C@H](c2cccc(Cl)c2)[C@H]1c1ccc(Cl)cc1 [Example 249, 2-((2R,5R,6R)-4-((1S,2S)-2-(tert-butylsulfonyl)cyclohexyl)-6-(3-chlorophenyl)-5-(4-chlorophenyl)-3-oxomorpholin-2-yl)acetic acid] | 4 |
| C[C@@H](CSC(C)(C)C)N1C(=O)CO[C@H](c2cccc(Cl)c2)[C@H]1c1ccc(Cl)cc1 [Example 222, (5R,6R)-4-((S)-1-(tert-butylthio)propan-2-yl)-6-(3-chlorophenyl)-5-(4-chlorophenyl)morpholin-3-one] | 170 |
| CC(C)(C)S(=O)(=O)C[C@H](C1CC1)N1C(=O)[C@@H](Cc2ncn[nH]2)O[C@H](c2cccc(Cl)c2)[C@H]1c1ccc(Cl)cc1 (single isomer, unassigned) [Example 389, (2R,5R,6R)-2-((1H-1,2,4-Triazol-5-yl)methyl)-4-((S)-2-(tert-butylsulfonyl)-1-cyclopropylethyl)-6-(3-chlorophenyl)-5-(4-chlorophenyl)morpholin-3-one or (2S,5R,6R)-2-((1H-1,2,4-triazol-5-yl)methyl)-4-((S)-2-(tert-butylsulfonyl)-1-cyclopropylethyl)-6-(3-chlorophenyl)-5-(4-chlorophenyl)morpholin-3-one] | 19 |
| CC(C)S(=O)(=O)C[C@H](C1CC1)N1C(=O)[C@@H](CC(=O)O)O[C@H](c2cccc(Cl)c2)[C@H]1c1ccc(Cl)cc1 (single isomer, unassigned) [Example 157, 2-((2R,5R,6R)-6-(3-chlorophenyl)-5-(4-chlorophenyl)-4-((S)-1-cyclopropyl-2-(isopropylsulfonyl)ethyl)-3-oxomorpholin-2-yl)acetic acid or 2-((2S,5R,6R)-6-(3-chlorophenyl)-5-(4-chlorophenyl)-4-((S)-1-cyclopropyl-2-(isopropylsulfonyl)ethyl)-3-oxomorpholin-2-yl)acetic acid] | 1 |
| O=C1[C@@H](Cc2nnn[nH]2)O[C@H](c2cccc(Cl)c2)[C@@H](c2ccc(Cl)cc2)N1[C@H](CN(c1ccccc1F)S(=O)(=O)C1CC1)C1CC1 (single isomer, unassigned) [Example 398, N-((S)-2-((2R,5R,6R)-2-((1H-Tetrazol-5-yl)methyl)-6-(3-chlorophenyl)-5-(4-chlorophenyl)-3-oxomorpholino)-2-cyclopropylethyl)-N-(2-fluorophenyl)cyclopropanesulfonamide or N-((S)-2-((2S,5R,6R)-2-((1H-tetrazol-5-yl)methyl)-6-(3-chlorophenyl)-5-(4-chlorophenyl)-3-oxomorpholino)-2-cyclopropylethyl)-N-(2-fluorophenyl)cyclopropanesulfonamide] | < 1 |
| CC[C@@H](CN(c1ccccc1F)S(=O)(=O)C1CC1)N1C(=O)[C@H](CC(=O)NS(C)(=O)=O)O[C@H](c2cccc(Cl)c2)[C@H]1c1ccc(Cl)cc1 (single isomer, unassigned) [Example 239, 2-((2S,5R,6R)-6-(3-chlorophenyl)-5-(4-chlorophenyl)-4-((S)-1-(N-(2-fluorophenyl)cyclopropanesulfonamido)butan-2-yl)-3-oxomorpholin-2-yl)-N-(methylsulfonyl)acetamide or 2-((2R,5R,6R)-6-(3-chlorophenyl)-5-(4-chlorophenyl)-4-((S)-1-(N-(2-fluorophenyl)cyclopropanesulfonamido)butan-2-yl)-3-oxomorpholin-2-yl)-N-(methylsulfonyl)acetamide] | < 1 |
| NS(=O)(=O)C[C@H]1O[C@H](c2cccc(Cl)c2)[C@@H](c2ccc(Cl)cc2)N([C@H](CN(c2ccccc2F)S(=O)(=O)C2CC2)C2CC2)C1=O (single isomer, unassigned) [Example 410, N-((S)-2-((2R,3R,6S)-2-(3-Chlorophenyl)-3-(4-chlorophenyl)-5-oxo-6-(sulfamoylmethyl)morpholino)-2-cyclopropylethyl)-N-(2-fluorophenyl)cyclopropanesulfonamide or N-((S)-2-((2S,3R,6S)-2-(3-chlorophenyl)-3-(4-chlorophenyl)-5-oxo-6-(sulfamoylmethyl)morpholino)-2-cyclopropylethyl)-N-(2-fluorophenyl)cyclopropanesulfonamide] | < 1 |
| NC(=O)C[C@H]1O[C@H](c2cccc(Cl)c2)[C@@H](c2ccc(Cl)cc2)N([C@H](CN(c2ccccc2)S(=O)(=O)C2CC2)C2CC2)C1=O (single isomer, unassigned) [Example 361, 2-((2R,5R,6R)-6-(3-Chlorophenyl)-5-(4-chlorophenyl)-4-((S)-1-cyclopropyl-2-(N-phenylcyclopropanesulfonamido)ethyl)-3-oxomorpholin-2-yl)acetamide or 2-((2S,5R,6R)-6-(3-chlorophenyl)-5-(4-chlorophenyl)-4-((S)-1-cyclopropyl-2-(N-phenylcyclopropanesulfonamido)ethyl)-3-oxomorpholin-2-yl)acetamide] | < 1 |
| CC(C)(C)S(=O)(=O)C[C@H](C1CC1)N1C(=O)[C@@H](CC(=O)Nc2ccccn2)O[C@H](c2cccc(Cl)c2)[C@H]1c1ccc(Cl)cc1 (single isomer, unassigned) [Example 354, 2-((2R,5R,6R)-4-((S)-2-(tert-Butylsulfonyl)-1-cyclopropylethyl)-6-(3-chlorophenyl)-5-(4-chlorophenyl)-3-oxomorpholin-2-yl)-N-(pyridin-2-yl)acetamide or 2-((2S,5R,6R)-4-((S)-2-(tert-butylsulfonyl)-1-cyclopropylethyl)-6-(3-chlorophenyl)-5-(4-chlorophenyl)-3-oxomorpholin-2-yl)-N-(pyridin-2-yl)acetamide] | 2 |
